# Test results reported in paper PMC6479349, “Derivatives of 3-Aminopyrazine-2-carboxamides: Synthesis, Antimicrobial Evaluation, and in Vitro Cytotoxicity” (Molecules, 2019).
# “And” between values parts separate entries of the source, which are not always exact repeats. Equal entries are not always repeated. Where two headings read alike, the source gives them in different places.
# Assays:
# [1] = Lipophilicity by reverse phase HPLC (log k); details: RP-HPLC C18, MeOH 70% / H2O 30%, 30 °C
# Method: The mobile phase consisted of MeOH (HPLC grade, 70%) and H2O (HPLC-Milli-Q Grade, 30%). The flow rate was 1.0 mL/min, samples were injected in a volume of 20 µL, and the column temperature was 30 °C. Detection and monitoring wavelength were 210 nm and 270 nm, respectively. Retention times (Rt) were measured in minutes. The dead time of the system (Dt) was determined as the retention time of the KI methanolic solution. Capacity factors k for individual compounds were calculated according to the formula k = (Rt – Dt)/Dt. Capacity factor k was converted to log scale and (log k) and used as a measure of lipophilicity.
# [2] = system: Mycobacterium smegmatis DSM 43465; assay: Antimycobacterial microdilution broth panel MIC (resazurin); assay type: cell-based
# [3] = system: Mycobacterium tuberculosis H37Rv; assay: Antimycobacterial microdilution broth MIC (Alamar Blue); assay type: cell-based
# [4] = system: Trichophyton interdigitale CCM 8377; assay: Antifungal microdilution broth MIC; details: for MIC: Trichophyton interdigitale, CCM8377, 72 h, read-out: MIC72h TI
# [5] = system: M. kansasii CNCTC My 235/80; assay: Antimycobacterial microdilution broth MIC (Alamar Blue); assay type: cell-based, Mycobacterium kansasii; details: Mycobacterium kansasii
# [6] = In vitro cytotoxicity, CellTiter 96 Aqueous One; details: human
# [7] = system: tested bacterial strains; assay: Antibacterial microdilution broth screening, strain not specified; details: read-out: MIC against the tested strains (antibacterial)
# [8] = system: Staphylococcus aureus CCM 4223; assay: Antibacterial microdilution broth MIC
# [9] = system: Staphylococcus aureus methicillin resistant CCM 4750; assay: Antibacterial microdilution broth MIC
# [10] = system: Staphylococcus epidermidis 112-2016; assay: Antibacterial microdilution broth MIC
# [11] = system: Mycobacterium aurum DSM 43999; assay: Antimycobacterial microdilution broth panel MIC (resazurin); assay type: cell-based; details: Mycolicibacterium aurum, DSM43999
# [12] = system: Serratia marcescens 62-2016; assay: Antibacterial microdilution broth MIC; details: Serratia marcescens, 622016, 48 h, read-out: MIC Serratia marcescens (standards)
# [13] = system: Enterococcus faecalis CCM 4224; assay: Antibacterial microdilution broth MIC; details: CCM4224, 48 h, read-out: MIC Enterococcus faecalis (standards)
# [14] = system: Escherichia coli CCM 3954; assay: Antibacterial microdilution broth MIC; details: CCM3954, 48 h, read-out: MIC Escherichia coli (standards)
# [15] = system: Klebsiella pneumoniae 64-2016; assay: Antibacterial microdilution broth MIC; details: Klebsiella pneumoniae, 642016, 48 h, read-out: MIC Klebsiella pneumonia (standards)
# [16] = system: Pseudomonas aeruginosa CCM 3955; assay: Antibacterial microdilution broth MIC; details: CCM3955, 48 h, read-out: MIC Pseudomonas aeruginosa (standards)
# [17] = Mycolicibacterium smegmatis, DSM43465
# [18] = Mycolicibacterium smegmatis, DSM43465, value in parentheses
# [19] = Mycobacterium tuberculosis, H37RV, M. tuberculosis H37Rv, value in parentheses
# [20] = Mycobacterium tuberculosis, H37RV, pH 6.6, M. tuberculosis H37Rv, Middlebrook 7H9 pH 6.6
# [21] = M. tuberculosis H37Rv, Middlebrook 7H9 pH 6.6
# [22] = M. tuberculosis H37Rv, value in parentheses
smiles,measurement,setting,value
"Nc1nccnc1C(=O)NCc1ccccc1 [Compound 1, 3-Amino-N-benzylpyrazine-2-carboxamide]",log k,[1],0.056
same,MIC,[2]; [17],> 500 µg/mL
same,MIC,[2]; [18],> 2190 µM
same,MIC,[3]; [19],> 438 µM
same,MIC,[3]; [20],> 100 µg/mL
same,antifungal activity against TI,[4],showed activity mainly against TI
"Cc1ccccc1CNC(=O)c1nccnc1N [Compound 2, 3-Amino-N-(2-methylbenzyl)pyrazine-2-carboxamide]",log k,[1],0.278
same,MIC,[2]; [17],> 500 µg/mL
same,MIC,[2]; [18],> 2060 µM
same,MIC,[3]; [19],> 413 µM
same,MIC,[3]; [20],> 100 µg/mL
"Cc1ccc(CNC(=O)c2nccnc2N)cc1 [Compound 3, 3-Amino-N-(4-methylbenzyl)pyrazine-2-carboxamide]",log k,[1],0.289
same,MIC,[2]; [17],> 500 µg/mL
same,MIC,[2]; [18],> 2060 µM
same,MIC Mtb,[3]; [21],100 µg/mL
same,MIC,[3]; [19],413 µM
same,MIC,[3]; [20],50 to 100 µg/mL
same,antifungal activity against TI,[4],showed activity mainly against TI
"COc1ccc(CNC(=O)c2nccnc2N)cc1 [Compound 4, 3-Amino-N-(4-methoxybenzyl)pyrazine-2-carboxamide]",log k,[1],0.026
same,MIC,[2]; [17],> 500 µg/mL
same,MIC,[2]; [18],> 1940 µM
same,MIC Mtb,[3]; [21],100 µg/mL
same,MIC,[3]; [19],387 µM
same,MIC,[3]; [20],50 to 100 µg/mL
same,antifungal activity against TI,[4],showed activity mainly against TI
"COc1ccc(CNC(=O)c2nccnc2N)c(OC)c1 [Compound 5, 3-Amino-N-(2,4-dimethoxybenzyl)pyrazine-2-carboxamide]",log k,[1],0.188
same,MIC,[2]; [17],> 500 µg/mL
same,MIC,[2]; [18],> 1730 µM
same,MIC,[3]; [19],> 347 µM
same,MIC,[3]; [20],> 100 µg/mL
"Nc1nccnc1C(=O)NCc1ccc(Cl)c(Cl)c1 [Compound 6, 3-Amino-N-(3,4-dichlorobenzyl)pyrazine-2-carboxamide]",log k,[1],0.493
same,MIC,[2]; [17],> 500 µg/mL
same,MIC,[2]; [18],> 1680 µM
same,MIC,[3]; [19],> 336 µM
same,MIC,[3]; [20],> 100 µg/mL
"Nc1nccnc1C(=O)NCc1cccc(C(F)(F)F)c1 [Compound 7, 3-Amino-N-(3-(trifluoromethyl)benzyl)pyrazine-2-carboxamide]",log k,[1],0.282
same,MIC,[2]; [17],250 µg/mL
same,MIC,[2]; [18],844 µM
same,MIC Mtb,[3]; [21],50 µg/mL
same,MIC,[3]; [19],169 µM
same,MIC,[3]; [20],50 to 100 µg/mL
same,antifungal activity against TI,[4],showed activity mainly against TI
"Nc1nccnc1C(=O)NCc1ccc(C(F)(F)F)cc1 [Compound 8, 3-Amino-N-(4-(trifluoromethyl)benzyl)pyrazine-2-carboxamide]",log k,[1],0.308
same,MIC,[2]; [17],> 500 µg/mL
same,MIC,[2]; [18],> 1690 µM
same,MIC Mtb,[3]; [21],50 µg/mL
same,MIC,[3]; [19],169 µM
same,MIC,[3]; [20],50 to 100 µg/mL
"CCCCCNC(=O)c1nccnc1N [Compound 9, 3-Amino-N-pentylpyrazine-2-carboxamide]",log k,[1],0.327
same,MIC,[2]; [17],> 500 µg/mL
same,MIC,[2]; [18],> 2400 µM
same,MIC,[3]; [19],> 480 µM
same,MIC,[3]; [20],> 100 µg/mL
same,MIC,[4],500 µM
"CCCCCCNC(=O)c1nccnc1N [Compound 10, 3-Amino-N-hexylpyrazine-2-carboxamide]",MIC,[5],100 µg/mL and 450 µM
same,log k,[1],0.569
same,MIC,[2]; [17],250 µg/mL
same,MIC,[2]; [18],1120 µM
same,IC50 at 24 h,[6],389 µM
same,MIC,[7],500 µM
same,MIC,[3]; [22],449.9 µM
same,MIC,[3]; [19],450 µM
same,MIC,[3]; [20],100 µg/mL
same,MIC,[4],250 µM
"CCCCCCCNC(=O)c1nccnc1N [Compound 11, 3-Amino-N-heptylpyrazine-2-carboxamide]",MIC,[5],50 µg/mL and 212 µM
same,log k,[1],0.813
same,MIC,[2]; [17],62.5 µg/mL
same,MIC,[2]; [18],264 µM
same,MIC,[2]; value in parentheses,264.5 µM
same,MIC,[7],250 µM
same,MIC,[3]; [22],211.6 µM
same,MIC,[3]; [19],212 µM
same,MIC,[3]; [20],50 µg/mL
same,MIC,[4],500 µM
"CCCCCCCCNC(=O)c1nccnc1N [Compound 12, 3-Amino-N-octylpyrazine-2-carboxamide]",MIC,[5],25 µg/mL and 100 µM
same,log k,[1],1.057
same,MIC,[2]; [17],62.5 µg/mL
same,MIC,[2]; [18],250 µM
same,MIC,[2]; value in parentheses,249.7 µM
same,MIC,[7],62.5 µM
same,MIC,[3]; [22],99.9 µM
same,MIC,[3]; [19],100 µM
same,MIC,[3]; [20],25 µg/mL
same,MIC,[4],250 µM
"Cc1ccc(C)c(NC(=O)c2nccnc2N)c1 [Compound 15, 3-Amino-N-(2,5-dimethylphenyl)pyrazine-2-carboxamide]",log k,[1],0.778
same,MIC,[2]; [17],> 500 µg/mL
same,MIC,[2]; [18],> 2060 µM
same,MIC,[3]; [19],> 413 µM
same,MIC,[3]; [20],> 100 µg/mL
"CCc1ccc(NC(=O)c2nccnc2N)cc1 [Compound 16, 3-Amino-N-(4-ethylphenyl)pyrazine-2-carboxamide]",log k,[1],0.623
same,MIC,[2]; [17],> 500 µg/mL
same,MIC,[2]; [18],> 2060 µM
same,IC50 at 24 h,[6],> 250 µM
same,MIC,[3]; [19],> 413 µM
same,MIC,[3]; [20],> 100 µg/mL
"Nc1nccnc1C(=O)Nc1ccc(F)cc1F [Compound 18, 3-Amino-N-(2,4-difluorophenyl)pyrazine-2-carboxamide]",log k,[1],0.422
same,MIC,[2]; [17],> 500 µg/mL
same,MIC,[2]; [18],> 2000 µM
same,MIC,[3]; [19],> 400 µM
same,MIC,[3]; [20],> 100 µg/mL
"Nc1nccnc1C(=O)Nc1ccc(Cl)c(Cl)c1 [Compound 19, 3-Amino-N-(3,4-dichlorophenyl)pyrazine-2-carboxamide]",log k,[1],0.778
same,MIC,[2]; [17],> 500 µg/mL
same,MIC,[2]; [18],> 1770 µM
same,MIC,[3]; [19],177 µM
same,MIC,[3]; [20],50 µg/mL
"Nc1nccnc1C(=O)Nc1ccc(C(F)(F)F)cc1 [Compound 20, 3-Amino-N-(4-(trifluoromethyl)phenyl)pyrazine-2-carboxamide]",log k,[1],0.525
same,MIC,[2]; [17],31.2 µg/mL
same,MIC,[2]; [18],111 µM
same,MIC,[2]; value in parentheses,110.7 µM
same,IC50 at 24 h,[6],41.4 µM
same,MIC,"[8]; CCM4223, read-out: MIC Staphylococcus aureus",31.2 µM
same,MIC,[3]; [19],177 µM
same,MIC,[3]; [20],50 µg/mL
same,MIC,"[9]; CCM4750|MRSA, read-out: MIC methicillin resistant S. aureus (MRSA)",62.5 µM
same,MIC,"[10]; Staphylococcus epidermidis, 1122016, read-out: MIC S. epidermidis",62.5 µM
"NC(=O)c1cnccn1 [PZA, Pyrazinamide, reference compound]",MIC,[2]; [17],> 100 µg/mL
same,MIC,[3]; [20],100 µg/mL
"CO[C@H]1/C=C/O[C@@]2(C)Oc3c(C)c(O)c4c(O)c(c(/C=N/N5CCN(C)CC5)c(O)c4c3C2=O)NC(=O)/C(C)=C\C=C\[C@H](C)[C@H](O)[C@@H](C)[C@@H](O)[C@@H](C)[C@H](OC(C)=O)[C@@H]1C [RIF, rifampicin, reference compound]",MIC,[2]; [17],12.5 to 25 µg/mL
same,MIC,[11],0.78 to 1.56 µg/mL
CNC(C)C1CCC(N)C(OC2C(N)CC(N)C(OC3OCC(C)(O)C(NC)C3O)C2O)O1 (stereo not shown) [gentamicin],MIC,"[8]; CCM4223, 48 h, read-out: MIC Staphylococcus aureus (standards)",1 µg/mL
same,MIC,[12],2 µg/mL
same,MIC,[13],8 µg/mL
same,MIC,[14],1 to 2 µg/mL
same,MIC,[15],> 8 µg/mL
same,MIC,"[9]; CCM4750, 48 h, read-out: MIC Staphylococcus aureus methicillin resistant (standards)",16 to 32 µg/mL
same,MIC,[16],0.5 µg/mL
same,MIC,"[10]; Staphylococcus epidermidis, 1122016, 48 h, read-out: MIC Staphylococcus epidermidis (standards)",> 8 µg/mL
